Where a name gives a salt, the structure may show the parent alone.
Assays:
[1] = test system: stereotypies provoked by dexamphetamine; assay: Potentiation of stereotypies provoked by dexamphetamine; type: in vivo; parameters: Potentiation of stereotypies provoked by dexamphetamine for a determined dose in mg/kg: key to the marks not given beside the values; conditions: rats; for Potentiation of stereotypies provoked by dexamphetamine for a determined dose in mg/kg: dexamphetamine sulfate 3 mg/kg i.p.
Procedure: Each animal was placed individually in a grilled cage (29×25 ×17 cm) containing a few wood shavings. A does of 3 mg/kg of dexamphetamine sulfate was injected intraperitoneally one half hour after the intraperitoneal administration of the product studied. The behavior of the animals was noted every half hour for 5 hours with the rating recommended by […] et al [Brit. J. Pharmacol., Vol. 23 (1964), p. 330-350]. The animalis asleep (0), he is awake but immobile (1), he is turning in his cage (2), he is sniffing the lid (3), he is licking the sides (4), he is touching the shavings or the bars of the cage with his teeth (5), he is biting the chips or bars of the cage (6). The total of the scores per group at different periods after the administration of the product studied was determined and the potentiation of the stereotypies evaluated at the height of the effect is expressed by an increasing number of + signs for a given dose.

Acute toxicity = conditions: mouse, in vivo, ip; mice, intraperitoneal, 48 hours after administration
Procedure: The LD50, the dose at which 50% of the mice died after the intraperitoneal administration of the products to mice was determined 48 hours after the administration.

[2] = test system: catalepsy provoked by prochlorpemazine; assay: Antagonism of catalepsy provoked by prochlorpemazine; type: in vivo; parameters: key to Antagonism of catalepsy provoked by prochloropemazine for a determined dose in mg/kg: evaluated at the height of the effect was expressed by an increasing number of + signs for a given dose; ++: evaluated at the height of the effect was expressed by an increasing number of + signs for a given dose; +++: evaluated at the height of the effect was expressed by an increasing number of + signs for a given dose; conditions: rats; for Antagonism of catalepsy provoked by prochloropemazine for a determined dose in mg/kg: prochlorpemazine 15 mg/kg i.p.; for antagonism toward the cataleptigenic activity of prochlorpemazine: in words, i.p.
Procedure: The tests are carried out on groups of 5 young rats weighing about 100 g and the cataleptigenic agent used is prochlorpemazine at a dose of 15 mg/kg intraperitoneally. The product studied was administered simultaneously in the same way. The intensity of the catalepsy was evaluated by the test of crossing of the homolateral paws [BOISSIER et al, Therapie, Vol. 18 (1963), p. 1257] every hour for 7 hours. The rating adopted is the following: the animal refuses the crossing of the front paws with the homolateral rear paws (0), he retains the desired crossing on one side only (0.5), he accepts the crossing on both sides (1). The sum of the scores by groups read at different periods after the administration of the product studied is determined. The antagonism of catalepsy provoked by prochlorpemazine evaluated at the height of the effect was expressed by an increasing number of + signs for a given dose and the results are reported in Table II.

[3] = test system: rigidity provoked by reserpine; assay: Antagonism with respect to reserpinic rigidity; type: in vivo; parameters: key to Antagonism to reserpinic rigidity for a determined dose in mg/kg: ++: It was expressed by an increasing number of + signs for a given dose expressed in mg/kg; conditions: rat; for Antagonism to reserpinic rigidity for a determined dose in mg/kg: reserpine 10 mg/kg i.v., E.M.G.
Procedure: The antagonism of the compounds with respect to reserpinic rigidity [Jurna I: Arch. Pharmak. Exp. Path. Vol. 260 (1968), p. 80-88] was studied on the rat. The tests consisted of recording, by means of electrodes placed on the muscles of the anterior cavity of one of the rear paws of the animal, the electromyogram (E.M.G.) provoked by a dorsiflection of the instep. A dose of 10 mg/kg of reserpine was administered intraveneously, then, one half hour later when the hypertonicity of the muscle was maximal, the product to be studied was administered in the same way at a dose of 10 mg/kg or of 20 mg/kg.
The electromyographic responses obtained before and after treatment, were compared in intensity and in time. The inhibition observed on the electromyogram expressed the antagonism exercised by the product with respect to the rigidity provoked by reserpine. It was expressed by an increasing number of + signs for a given dose expressed in mg/kg.

mice = assay: Anorexigenic activity in mice; type: in vivo; conditions: 20 mg/kg i.p., food intake over following 24 hours
Procedure: The anorexigenic activity was studied with mice and the animals receive the product studied intraperitoneally 30 minutes before the start of the test. The quantities of nourishment absorbed in the course of the following 24 hours was noted and compared with the quantity of nourishment absorbed in the course of the same period by animals not receiving the product studied. The anorexigenic activity was expressed by an increasing number of + signs for a given dose expressed in mg/kg.

dog = assay: Anorexigenic activity in the dog; type: in vivo; conditions: administered in the first ball, 7 hours
Procedure: The anorexigenic activity was studied on the dog using the method of ADAMS et al [J. Pharm. Sci., Vol. 53 (1964), p. 1405]. On the day of the test of a substance presumed to be anorexigenic, the individual daily ration of the animals was broken down into substantially equal balls (10 to 20 g) which were offered to the dogs every 10 minutes for 7 hours. Normally, the animals regularly accept the successive balls offered to them. Refusal translates the anorexiant effectiveness of the compound studied which was administered in the first ball. The anorexigenic activity was expressed by an increasing number of + signs for a given dose expresses in mg/kg.

| SMILES | Potentiation of stereotypies provoked by dexamphetamine for a determined dose in mg/kg ([1]; 20 mg/kg i.p.) | LD50 at 48 h (Acute toxicity) [mg/kg] | Potentiation of stereotypies provoked by dexamphetamine for a determined dose in mg/kg ([1]; 2 mg/kg i.p.) | Antagonism of catalepsy provoked by prochloropemazine for a determined dose in mg/kg ([2]; 20 mg/kg i.p.) | Antagonism to reserpinic rigidity for a determined dose in mg/kg ([3]; 20 mg/kg i.v.) | Potentiation of stereotypies provoked by dexamphetamine for a determined dose in mg/kg ([1]; 0.2 mg/kg i.p.) | activity of potentiation of stereotypies provoked by dexamphetamine ([1]; in words, i.p.) | Antagonism of catalepsy provoked by prochloropemazine for a determined dose in mg/kg ([2]; 50 mg/kg i.p.) | antagonism toward the cataleptigenic activity of prochlorpemazine [2] | anorexigenic activity (mice) | anorexigenic activity (dog; 25 mg/kg) | Antagonism to reserpinic rigidity for a determined dose in mg/kg ([3]; 10 mg/kg i.v.) | Antagonism to reserpinic rigidity ([3]; in words, i.v.) | anorexigenic activity (dog; 20 mg/kg) |
| --- | --- | --- | --- | --- | --- | --- | --- | --- | --- | --- | --- | --- | --- | --- |
| FC(F)(F)c1cccc(C2CCCN(Cc3ccccc3)C2)c1 (stereo not drawn) [Example 6, N-benzyl-3-(m-trifluoromethylphenyl)-piperidine hydrochloride] | ++ | ~150 |  |  |  |  |  |  |  |  |  |  |  |  |
| CN1CCCC(c2cccc(C(F)(F)F)c2)C1.Cl (stereo not drawn) [Example 3, N-methyl-3-(m-trifluoromethylphenyl)-piperidine hydrochloride] |  | ~100 | ++ | + | ++ |  |  |  |  |  |  |  |  |  |
| CC(C)N1CCCC(c2cccc(C(F)(F)F)c2)C1.Cl (stereo not drawn) [Example 4, N-isopropyl-3-(m-trifluoromethylphenyl)-piperidine hydrochloride] |  | ~100 |  |  |  | +++ | very high activity | +++ | substantial antagonism | + | + | ++ | very high activity |  |
| Cl.FC(F)(F)c1cccc(C2CCCNC2)c1 (stereo not drawn) [Example 1, 3-(m-trifluoromethylphenyl)-piperidine hydrochloride] |  | ~150 |  | ++ | ++ |  |  |  | substantial antagonism | + |  |  |  | + |
